pIC50: −log10 of the molar value.

What is called pIC50 is the negative decadic logarithm of the IC50, by convention in mol/L. What is called Papp A→B is how fast a substance crosses the layer from the apical side. Lower therefore signals slow passage. Broadly, the Papp B→A is how fast a substance crosses the layer from the basolateral side.

One data set deals with T1, hIBAT (Homo sapiens, UniProt Q12908).
T1 construct: expressed in transfected cells; kept under Puromycin selection
T1 sequence (Q12908 1-348): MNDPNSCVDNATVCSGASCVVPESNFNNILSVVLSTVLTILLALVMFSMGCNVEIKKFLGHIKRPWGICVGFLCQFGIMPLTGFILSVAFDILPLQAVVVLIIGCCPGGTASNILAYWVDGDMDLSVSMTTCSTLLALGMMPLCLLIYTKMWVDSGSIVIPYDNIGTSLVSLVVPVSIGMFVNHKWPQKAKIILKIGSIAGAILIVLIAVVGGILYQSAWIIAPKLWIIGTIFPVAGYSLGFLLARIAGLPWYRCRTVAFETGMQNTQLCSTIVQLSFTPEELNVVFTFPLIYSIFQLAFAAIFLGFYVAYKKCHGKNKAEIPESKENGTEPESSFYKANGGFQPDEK
The data set is described as follows: IBAT (h/m) assay: 3H-taurocholic acid uptake in human IBAT-overexpressing cells. It counts as cell-based. The settings on record: 0.25 μM 3H-taurocholic acid + 5 μM cold taurocholic acid, 20 minutes at 37° C., highest test concentration 10 μM. The procedure, abridged: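 Human or mouse IBAT-overexpressing cells cultured 48 h, then exposed for 20 min at 37 °C to compounds (top 10 μM, 3-fold, 10 points; 0.2% DMSO) with 0.25 μM 3H-taurocholic acid plus 5 μM cold taurocholic acid. Uptake stopped on ice, cells washed with cold 1 mM taurocholic acid, radioactivity counted by scintillation.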

A short description of data set [1]: Bidirectional permeability assay (Caco-2 cells). It is filed as in vitro ADME. The settings on record: human, 10 μM in FaSSIF buffer, 120 minutes at 37° C.; for Papp A→B at 120 min, 10 µM: absorptive direction (A2B); for Papp B→A at 120 min, 10 µM: secretory direction (B2A). As to the method: Bidirectional Permeability Assay (Caco-2 Cells)
Caco-2 cells (Evotec) were seeded at a density of 70,000 cells/well in Millicell© 24-well cell culture insert plates and maintained in an incubator (37° C., 5% CO2, 95% RH) for 21 days with media change on alternate days.
Stock solutions (10 mM) of the test compounds, atenolol (low permeability marker), propranolol (high permeability marker) and digoxin (substrate for P-gp transport pathway) were prepared in dimethylsulfoxide (DMSO). An intermediate stock solution (1 mM) was prepared by diluting 10 μL of 10 mM master stock solution with 90 μL of neat DMSO. A working stock solution (10 μM) was prepared by diluting 50 μL of 1 mM with 4950 μL of FaSSIF buffer. Post addition of compounds to the FaSSIF, samples were subjected to sonication for 2 hours, and centrifuged at 4000 RPM for 30 minutes at 37° C. The 4 mL of resultant supernatant was directly used in the assay. The final DMSO concentration in the transport experiments was 1%.
On the day of assay, Caco-2 monolayers were washed twice with transport buffer (HBSS, pH 7.4) and pre-incubated for 30 min (37° C., 5% CO2, 95% RH) in an incubator. The electrical resistance of the monolayers was measured with a Millicell®-ERS system. Monolayers with trans-epithelial electrical resistance (TEER) values greater than 350 ohm·cm^2 were selected for the assay.
The assay was conducted in absorptive direction (A2B) and secretory (B2A) directions. Transport experiments were initiated by addition of transport assay buffer (FaSSIF buffer prepared in HBSS) consisting of compounds to the donor compartment (apical chamber A-B; basolateral chamber B-A) in duplicate (n=2) wells. Drug free HBSS buffer (pH 7.4) containing 1% bovine serum albumin (BSA) was introduced to the receiver (A-B-basolateral; B-A-Apical) compartments. The volumes of apical and basolateral compartments were 0.4 and 0.8 mL, respectively. After adding dosing solution, plates were incubated in an incubator for 120 minutes at 37° C. After 120 minutes, donor and receiver samples were collected and matrix matched (1:1, 30 μL study sample+30 μL blank buffer) with the opposite buffer. Dosing samples matrix matched (1:1, 30 μL study sample+30 μL blank buffer) with the opposite buffer. Samples were processed by adding acetonitrile containing internal standard (60 μL study sample+200 μL acetonitrile containing internal standard—Tolbutamide, 500 ng/mL). Samples were vortexed and centrifuged at 4000 rpm for 10 minutes. The obtained supernatant (100 μL) was diluted with 100 μL of water and transferred to fresh 96 well plates. The concentration of compounds in the samples was analyzed by liquid chromatography tandem mass spectrometry (LC-MS/MS) method using discovery grade bio-analytical method, as applicable.
The mean apparent permeability (Papp,×10^−6 cm/sec) of the test compounds, atenolol, propranolol and digoxin were calculated as follows:
where dq/dt=rate of transport (rate of transport of compound in the receiver compartment), C0=initial concentration in the donor compartment, A=surface area of the effective filter membrane.
(In general: Caco-2 cells form a polarised layer with tight junctions and transporters.)

Regarding `CCCCC1(CC)CN(c2ccccc2)c2cc(SC)c(CSCC(=O)O)cc2S(=O)(=O)C1` (single isomer, unassigned) [2, enantiomer 1], at hIBAT, the pIC50 was 9.70. Besides, in data set [1], the Papp A→B at 120 min, 10 µM stood at 7.5 ×10⁻⁶ cm/s and the Papp B→A at 120 min, 10 µM is 9.3 ×10⁻⁶ cm/s.

As to `CCCCC1(C)CN(c2ccccc2)c2cc(SC)c(CSCC(=O)O)cc2S(=O)(=O)C1` (single isomer, unassigned) [5, enantiomer 1], at hIBAT, the pIC50 is 9.15. In data set [1], the Papp A→B at 120 min, 10 µM stood at 29.3 ×10⁻⁶ cm/s and the Papp B→A at 120 min, 10 µM is 25.3 ×10⁻⁶ cm/s.

Consider `CCCCC1(CC)CN(c2ccc(F)cc2)c2cc(SC)c(CSCC(=O)O)cc2S(=O)(=O)C1` (single isomer, unassigned) [7, enantiomer 1], for which the pIC50 at hIBAT is 9.40. In data set [1], this compound came in with an apical-to-basolateral permeability (Papp A→B) at 120 min, 10 µM of 24.3 ×10⁻⁶ cm/s and a Papp B→A at 120 min, 10 µM of 21.3 ×10⁻⁶ cm/s.

Values taken from patent US20240067617A1 (Albireo AB, priority 2022, published 2024).
